One block for each compound: values may come before it.
Columns and labels:
[1] = biological target: T1, ADRB1 (Homo sapiens, UniProt P08588); assay: cAMP assay (HTRF), ADRB1; assay type: cell-based; parameters: expressed in transfected cells; host or cells: HEK-293; conditions: for cAMP pathway ADRB1 EC50 / EC50: HEK-293 cells, geometric mean (95% confidence limits) of at least two experiments; for ADRB1 agonist activity (cAMP pathway), in words: compared to xamoterol (S); for Emax: 0.5 h, percent efficacy vs maximum response of isoproterenol, read-out: cAMP pathway ADRB1 % Iso max; for EC50: read-out: cAMP pathway ADRB1 EC50
T1 sequence (P08588 whole entry): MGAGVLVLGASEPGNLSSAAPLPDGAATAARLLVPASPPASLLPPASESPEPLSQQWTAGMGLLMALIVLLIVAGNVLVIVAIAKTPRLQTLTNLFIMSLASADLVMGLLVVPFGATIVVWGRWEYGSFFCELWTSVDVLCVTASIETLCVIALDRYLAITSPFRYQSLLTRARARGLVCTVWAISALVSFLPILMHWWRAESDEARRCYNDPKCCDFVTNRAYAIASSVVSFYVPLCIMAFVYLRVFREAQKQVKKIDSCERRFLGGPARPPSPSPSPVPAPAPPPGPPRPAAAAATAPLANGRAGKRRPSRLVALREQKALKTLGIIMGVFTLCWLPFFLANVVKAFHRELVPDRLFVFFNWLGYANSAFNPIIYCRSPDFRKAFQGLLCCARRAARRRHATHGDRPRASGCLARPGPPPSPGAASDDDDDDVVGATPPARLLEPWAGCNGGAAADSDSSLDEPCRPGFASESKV
Protocol: Pharmacological effects of compounds at the cAMP pathway mediated by ADRB1 were evaluated by measuring cAMP production using the homogenous time-resolved fluorescence detection method with HEK-293 cells stably expressing human recombinant ADRB1. Briefly, cells were suspended in HBSS buffer completed with 20 mM HEPES (pH 7.4) and 500 μM IBMX (3-isobutyl-1-methylxanthine) and distributed at a density of 3x10^3 cells/well. […] Following incubation, the cells were lysed and the fluorescence acceptor (D2-labeled cAMP) and fluorescence donor (anti-cAMP antibody labeled with europium cryptate) were added. […] The results were expressed as a percent of the maximum efficacy achieved with isoproterenol. Pharmacological effects of compounds at the cAMP pathway mediated by ADRB2 and ADRB3 were measured as described above using CHO cells stably expressing human recombinant ADRB2 and human SK-N-MC neurotumor cells endogenously expressing ADRB3, respectively.

[2] = tested on: LPS-induced TNFα production in primary microglia; assay: In vitro primary microglia TNFα assay; assay type: cell-based, Sprague Dawley rat; conditions: Rattus norvegicus, 4 h, read-out: inhibition of LPS-induced TNFα production
Description: Mixed glial cells were obtained from the cerebral cortex of Sprague Dawley rat pups at postnatal days 1–3. Briefly, neonates were euthanized by decapitation and their brain tissues were collected for cortex isolation. The isolated cortex was then trypsinized, triturated, and placed into tissue culture flasks in DMEM supplemented with 10% fetal bovine serum and 1% Penicillin/Streptomycin. After 10 days in vitro, microglia were harvested by gentle shaking of the growth flask, plated in a 96 well plate at a density of 30,000 cells/well, and incubated at 37°C overnight.

[3] = tested on: LPS-induced TNFα response; assay: In vivo LPS assay; parameters: species or system C57Bl/6J mice; conditions: 90 min post-LPS
Protocol: ; subcutaneous; […]; intraperitoneal; n = 4) or vehicle (5% DMSO/20%PEG400/water; intraperitoneal; n = 12) 15 min prior to LPS (50 ug/kg; intraperitoneal). A control group was injected with vehicle 15 minutes prior to saline (n = 18). Following injections, mice were single-housed. At 90 min post-LPS/saline, mice were deeply anesthetized with isoflurane and blood was collected from the right ventricle via cardiac puncture (23 g needle) into lithium heparin-containing vials (BD microtainer plasma tubes). Subsequently, brains were collected after perfusion with phosphate-buffered saline. Plasma was separated by centrifugation (11,000 rpm for 3 minutes) within 60 min of collection and stored at -80°C until analysis. The concentration of TNFα in the collected plasma was measured by ELISA (Invitrogen, KMC3012) according to the manufacturer’s instruction. The LPS-induced inflammatory response in the CNS was assessed by measuring mRNA expression for genes related to neuroimmune activation in brain tissue according to the previously reported method. Briefly, total RNA was extracted from hippocampus containing coronal sections using the RNeasy Lipid Tissue Mini Kit (Qiagen), and transcribed into cDNA (Superscript III, Invitrogen). PCR was performed in duplicate using TaqMan gene expression assays, TNFα (Mm00443258_m1), IL1b (Mm00434228_m1), IL6 (Mm00446190_m1), and glyceraldehyde-3-phosphate dehydrogenase (GAPDH; Mm99999915_g1). Fold changes of expression relative to control were determined after normalization to GAPDH. Relative quantification and fold change were calculated by the comparative CT method. Brain uptake of STD-101-D1 was determined in brain tissue. […]

[4] = biological target: panel of CNS relevant targets, including G protein-coupled receptors and transporters; assay: Off-target binding screen, panel of CNS relevant targets; conditions: broad range of neurotransmitter transporters, ion channels and other CNS proteins; read-out: off-target affinity Ki
[5] = Pharmacokinetic study 2, 20-min post-dose collection; assay type: in vivo, Sprague-Dawley rats; conditions: rat, 10 mg/kg, 20 min post-dose
Description: Two cohorts of Sprague-Dawley rats were used in two independent studies. All animals were fasted overnight before the experiment with free access to water. In study 1, a total of 18 rats were used for a 4 hr time course pharmacokinetic (PK) study. Rats were anesthetized with 3% isoflurane and catheters were implanted into the jugular and/or portal veins for compound administration and/or blood sampling at 1 to 2 days prior to the experiments as previously described. […] Four hours post-dose, rats were deeply anesthetized with isoflurane and blood samples were collected by cardiac puncture. In study 2, a total of 18 rats were used for a 20 min post-dose collection study. […] At 20 min post-dose, rats were deeply anesthetized with isoflurane and blood samples were collected by cardiac puncture. Brains were collected after perfusion with phosphate buffered saline. All plasma samples were immediately separated after collection by centrifugation (11,000 rpm for 3 minutes) and stored at −80°C until analysis. […] Tulobuterol was used as the internal standard. The flow rate was set to 0.45 ml/min. Column temperature was 25°C. […] The injection volume was 20 μl. The mass spectrometer was operated in the positive mode with multiple-reaction monitoring (MRM). […] Mobile phase A consisted of 10 mM ammonium acetate and 0.1% formic acid in LCMS grade water. Mobile phase B consisted of 10 mM ammonium acetate and 0.1% formic acid in LCMS grade acetonitrile:water 90:10% (v/v). […] Five μl of the extracted samples were injected. […] Data acquisition and analysis were performed using the Analyst 1.6.1 software (AB SCIEX, CA).

[6] = cited from earlier work
[7] = Cardiovascular studies (heart rate, blood pressure); assay type: in vivo, Sprague-Dawley rats; conditions: anesthetized rats, 3 mg/kg subcutaneous
Protocol: A polyethylene catheter (PE50) filled with heparinized saline was then inserted into the tail artery and connected to the blood pressure transducer system. After ensuring the absence of any air bubbles, 5–10 min of baseline systolic and diastolic blood pressure along with heart rate measurements were recorded using LabChart Pro (AD Instruments, CO).

[8] = biological target: T1, ADRB1; assay: β-arrestin assay (PathHunter enzyme fragment complementation); assay type: cell-based; parameters: host or cells: CHO-K1 (PathHunter)
Protocol: Pharmacological activity of compounds in the β-arrestin pathway mediated by ADRB1 were evaluated using an enzyme fragment complementation method with a β‐galactosidase functional reporter. An engineered CHO-K1-ADRB1 PathHunter cell line (DiscoveRx) was used in the assay. In this cell line, the enzyme acceptor (β‐galactosidase fragment) is fused to β-arrestin and the enzyme donor (β‐galactosidase fragment) is fused to the ADRB1. Thus, activation of the ADRB1 stimulates binding of β-arrestin to the ProLink-tagged ADRB1 and forces complementation of the two enzyme fragments, resulting in the formation of an active β‐galactosidase enzyme. Briefly, CHO-K1-ADRB1 PathHunter cell lines were plated in a total volume of 20 μL cell plating reagent (DiscoveRx, 93-0563R0A) at a density of 2,500 cells/well into 384 well microplates and incubated overnight at 37°C in 5% CO2. […] Chemiluminescent signal was then read with a PerkinElmer Envision (Perkin Elmer, Inc., MA) instrument. The results were expressed as a percent of the maximum efficacy achieved with isoproterenol.

cAMP pathway ADRB1 EC50 [1]: no response | ADRB1 agonist activity (cAMP pathway), in words [1]: inactive
Compound: O=C(NCCNC[C@H](O)COc1cccc2c(O)cccc12)N1CCOCC1 [STD-101-E, (S)-N-(2-((2-hydroxy-3-((5-hydroxynaphthalen-1-yl)oxy)propyl)amino)ethyl)morpholine-4-carboxamide]

cAMP pathway ADRB1 EC50 [1]: no response
Compound: O=C(NCCNC[C@H](O)COc1cc(Cl)c(O)cc1F)N1CCOCC1 [STD-101-B4, (S)-N-(2-((3-(5-chloro-2-fluoro-4-hydroxyphenoxy)-2-hydroxypropyl)amino)ethyl)morpholine-4-carboxamide]
ADRB1 agonist activity (cAMP pathway), in words [1]: abolished the agonist activity completely

Emax [1]: 25.1 ± 4.7% | EC50 [1]: 7.1 nM | ADRB1 agonist activity (cAMP pathway), in words [1]: decrease in both potency and efficacy
Compound: N#Cc1cc(OC[C@@H](O)CNCCNC(=O)N2CCOCC2)ccc1O [STD-101-B6, (S)-N-(2-((3-(3-cyano-4-hydroxyphenoxy)-2-hydroxypropyl)amino)ethyl)morpholine-4-carboxamide]

Ki [4]: > 10000 nM
Compound: O=C(NCCNC[C@H](O)COc1ccc(O)cc1)N1CCOCC1 [Xamoterol (S)]
LPS-induced systemic (plasma) TNFα response ([3]; 3 mg/kg pre-treatment 15 min prior to LPS): markedly inhibited | inhibition at 10 µM [2]: ~55%

The next lines start with the compound.

Compound: CC(C)NCC(O)c1ccc(O)c(O)c1 (stereo not shown) [isoproterenol]
inhibition at 10 µM [2]: ~80%

Compound: O=C(NCCNCC(O)COc1ccc(O)cc1)N1CCOCC1 (stereo not shown) [Xamoterol, reference compound]
CNS inflammatory markers after LPS ([3]; 3 mg/kg subcutaneous pre-treatment): Significant effects of xamoterol were not observed | plasma concentration after PO as percent of that after IP [5]: 0.2% | plasma concentration after PO as percent of that after IV [5]: 0.7% | oral bioavailability in humans [6]: 5% | decrease in blood pressure [7]: 9% | increase in heart rate [7]: 4%

Compound: COc1ccc(CCNCC(O)COc2ccc(O)c(O)c2)cc1OC (stereo not shown) [RO363, reference compound]
EC50 ([8]; CHO-K1-ADRB1 PathHunter cells, read-out: β-arrestin pathway ADRB1 EC50): 32.2 nM | β-arrestin pathway ADRB1 % Iso max ([8]; percent efficacy vs maximum response of isoproterenol): 36.5% | decrease in potency vs xamoterol (S), cAMP ADRB1 [1]: approximately 3 fold | increase in efficacy vs xamoterol (S), cAMP ADRB1 [1]: approximately 2 fold | Emax [1]: 104 ± 23.9% | EC50 [1]: 7.9 nM

Compound: N#Cc1cc(OC[C@@H](O)CNCCNC(=O)N2CCOCC2)c(F)cc1O [STD-101-B8, (S)-N-(2-((3-(5-cyano-2-fluoro-4-hydroxyphenoxy)-2-hydroxypropyl)amino)ethyl)morpholine-4-carboxamide]
cAMP pathway ADRB1 EC50 [1]: no response | ADRB1 agonist activity (cAMP pathway), in words [1]: abolished the agonist activity completely

From article PMC5529018, “Discovery of novel brain permeable and G protein-biased beta-1 adrenergic receptor partial agonists for the treatment of neurocognitive disorders” (PLoS ONE, 2017)
